Here are results for one compound from patent US20220017486A1, “DOCK1-INHIBITING COMPOUND AND USE THEREOF” (KYUSHU UNIVERSITY, NATIONAL UNIVERSITY CORPORATION, priority 2018, published 2022).

Entries after “also recorded” stand apart in the source; their conditions may differ.

Series [1] concerns mouse lung carcinoma cell line (3LL cells). Description: Cell invasion inhibition assay (Matrigel invasion chamber). The class given is cell-based. The settings on record: in words. The gist of the method:
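Matrigel invasion chambers (8 μm pores); cells in serum-free DMEM above, 10% FCS DMEM below, compound in both, 0.2% DMSO final. 3LL (K-Ras G12C), PANC02 and MDA-MB-157 (Rac1 P29S) cultured 22 h (3LL, PANC02) or 48 h (MDA-MB-157) at 37° C. Invaded cells Diff-Quick-stained and counted; % invasion vs DMSO control, % inhibition = 100 − % invasion.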

Series [2] has as its system CCL21-stimulated T cells (mouse spleen cells). Briefly: T lymphocyte migration towards CCL21 (Transwell). The format is cell-based. Particulars: in words, 2-hour incubation. Here is the method:
In view of the above, the effect of RT-22 (Production Example 1A), which serves as a representative of the compounds of the present invention, on the lymphocyte migration was studied. Specifically, mouse spleen cells (1×10^7 cells/mL) were first precultured at 37° C. for 1 hour in 0.5 mass % BSA-containing RPMI-1640 (Transwell medium), to which DMSO alone or DMSO in which a predetermined concentration of each test compound was dissolved was added. Subsequently, 500 μL of Transwell medium containing 300 ng/mL of CCL21 and DMSO in which a predetermined concentration of each test compound was dissolved was added to a 24-well plate. Then, Transwell inserts (Corning, pore size: 5 μm) were placed in the wells, into which the precultured mouse spleen cells were loaded at 1×10^6 cells/100 μL.
After 2-hour incubation at 37° C., the cells that migrated to the lower chamber were collected and stained with PE-labeled anti-Thy1.2 antibody (53-2-1, BD Pharmingen) and APC-labeled anti-B220 antibody (RA-6B2, eBioscience). The percentage (%) of the migrated cells was calculated by dividing the number of Thy1.2^+ cells (T cells) in the lower chamber by the number of Thy1.2^+ cells (T cells) placed into the Transwell inserts.

The test system of series [3] is T cells (mouse spleen cells). Briefly: Viability of lymphocytes (propidium iodide, flow cytometry). The format is cell-based. Particulars: in words, 1-hour culture. Here is the method:
Specifically, 1×10^6 mouse spleen cells were suspended in 100 μL of RPMI-1640 medium containing 0.5% BSA, and DMSO in which a predetermined concentration of each test compound was dissolved or DMSO alone was added thereto to a final DMSO concentration of 0.2%. After 1-hour culture at 37° C., 2 μL of a propidium iodide staining solution (BD Pharmingen) was added and incubated on ice for 30 minutes, followed by flow cytometry analysis. The percentage of the viable cells under each condition was calculated, considering negative cells to be viable cells.
For orientation: Flow cytometry measures light scatter and fluorescence of single cells or particles in a stream.

In series [4] the test system is mouse lung carcinoma cell line (3LL). Description: Tumor growth of subcutaneously transplanted mouse lung carcinoma cells. The format is in vivo, C57BL/6 mice. As to the method:
The mouse lung carcinoma cell line (3LL) was suspended in 200 μL of PBS(−), and transplanted (5×10^5 cells per mouse) into the dorsal subcutaneous region of C57BL/6 mice (6 weeks old). To a 6:1:1 mixture of PBS/Cremophor EL/ethanol, RT-22 as a representative of the compounds of the present invention was added to a concentration of 0.25 mg/300 μL, and the resulting mixture was loaded into an SMP-300 micro infusion pump (iPRECIO), which was subcutaneously implanted on the previous day of the transplantation, to perform continuous intravenous administration (n=5 mice). The control group was only administered with an equivalent volume of a solvent (a 6:1:1 mixture of PBS/Cremophor EL/ethanol) (n=6 mice). The transverse and longitudinal diameters of the tumor mass were measured over time for a period of 4 weeks from the start of administration, and the tumor volume (V) was calculated according to the formula: V=π/6x√((transverse diameter×longitudinal diameter)^3).

`COC(=O)c1cc(S(=O)(=O)N2CCCC2)cn1CC(=O)c1ccc(-c2cccc(C(F)(F)F)c2)cc1` [RT-22, methyl 1-(2-oxo-2-(3′-(trifluoromethyl)-[1,1′-biphenyl]-4-yl)ethyl)-4-(pyrrolidin-1-yl-sulfonyl)-1H-pyrrole-2-carboxylate]: the “percent cell invasion inhibition compared with TBOPP” value in series [1] is “higher percent cell invasion inhibition than TBOPP; also recorded: higher than those of TBOPP”. The “migration of CCL21-stimulated T cells” value in series [2] is reported as “no effect”. Moreover, the “viability of T cells” value in series [3] was “no effect”. The “tumor size as % of that of the control group” value in series [4] (3LL s.c. in C57BL/6 mice, continuous intravenous administration, 0.25 mg/300 μL, day 26 to day 29) lay in the range of 64 to 69%. The “tumor growth inhibition compared with TBOPP” value in series [4] (in words) is listed as “more effective in inhibiting tumor growth than TBOPP”.
